The results in this text go back to ChEMBL document CHEMBL5584298, “Discovery of Cytotoxic Nitric Oxide-Releasing Piperlongumine Derivatives Targeting Wnt/β-Catenin in Colon Cancer Cells” (J Nat Prod, 2024).

Some results are limits rather than exact numbers.

Data set [1] deals with A549. Put plainly: Antiproliferative activity against human A549 cells at 0.1 to 100 uM by MTT assay. The format is functional, cell-based. The conditions noted are these: dose 0.1-100 µM, time 24-72 hrs, TDE = time-dependent effect. On the technique in general: Tetrazolium assays rely on reduction of a dye to a coloured formazan, in cell work by metabolically active cells.

For data set [2], the system named is HCT-116. Put plainly: Antiproliferative activity against human HCT-116 cells at 0.1 to 100 uM by MTT assay. The class given is functional, cell-based. As to conditions: dose 0.1-100 µM, time 24-72 hrs, TDE = time-dependent effect.
The test system of data set [3] is HCT-116. As to the kind of experiment: Antiproliferative activity against human HCT-116 cells incubated for 24 hrs by MTT assay. As to conditions: HCT-116, 24 h. The class given is functional, cell-based.
The subject of data set [4] is HCT-116. As to the kind of experiment: Antiproliferative activity against human HCT-116 cells incubated for 24 to 72 hrs by MTT assay. The format is functional, cell-based. The conditions noted are these: dose 0.1-100 µM, time 24-72 hrs.
In data set [5] the test system is A549. Put plainly: Antiproliferative activity against human A549 cells incubated for 72 hrs by MTT assay. The conditions noted are these: A549, 72 h. The format is functional, cell-based.
Data set [6] has as its system HCT-116. As to the kind of experiment: Antiproliferative activity against human HCT-116 cells incubated for 72 hrs by MTT assay. The class given is functional, cell-based. The conditions noted are these: HCT-116, 72 h.
The test system of data set [7] is A549. As to the kind of experiment: Antiproliferative activity against human A549 cells incubated for 24 to 72 hrs by MTT assay. The format is functional, cell-based. As to conditions: dose 0.1-100 µM, time 24-72 hrs.
The subject of data set [8] is HCT-116. Put plainly: Induction of NO production in human HCT-116 cells incubated for 6 hrs by Griess reagent based assay. The format is functional, cell-based. The conditions noted are these: dose 1-10 µM.
The subject of data set [9] is A549. Put plainly: Antiproliferative activity against human A549 cells incubated for 24 hrs by MTT assay. The class given is functional, cell-based. The conditions noted are these: A549, 24 h.
A short description of data set [10]: Cytotoxicity against human CCD-841CoN cells incubated for 24 hrs by MTT assay. The format is toxicity, cell-based.
Data set [11] in a line: Cytotoxicity against human CCD-841CoN cells incubated for 72 hrs by MTT assay. The class given is toxicity, cell-based.
Data set [12] has as its system HCT-116. As to the kind of experiment: Downregulation of beta-catenin expression in human HCT-116 cells cytosol after 24 hrs by Western blotting analysis. The conditions noted are these: dose 0.5-2 µM. The format is functional, subcellular.
Data set [13] deals with HCT-116. Put plainly: Downregulation of phosphorylated GSK-3beta at Ser9 residue expression in human HCT-116 cells after 24 hrs by Western blotting analysis. The class given is functional, cell-based. As to conditions: dose 0.5-2 µM.
Data set [14] deals with HCT-116. As to the kind of experiment: Downregulation of beta-catenin expression in human HCT-116 cells nucleus after 24 hrs by Western blotting analysis. As to conditions: dose 0.5-2 µM. The format is functional, subcellular. On the technique in general: Immunoblotting shows a protein as a band on a membrane.
A short description of data set [15]: Selectivity index, ratio of IC50 for human CCD-841CoN cells to IC50 for human HCT-116 cells. The class given is toxicity. The conditions noted are these: CCD-841CoN cells and HCT-116 cells, read-out: Ratio IC50.

As for `COc1cc(/C=C/C(=O)NOC/N=[N+](\[O-])N2CCOCC2)cc(OC)c1OCCCCC(=O)OCO/N=[N+](\[O-])N1CCOCC1`, the Activity entry in the data set with A549 [1] is “Tde”; with HCT-116 [2], “Tde”; with HCT-116 [4] it was “Dose-Dependent Effect”; in the data set with A549 [7] it was “Dose-Dependent Effect”; in the data set with HCT-116 [8], “Dose-Dependent Effect”. The IC50 (usually the concentration needed to halve the response being measured) in the data set with HCT-116 [3] came to 35.6 µM; with A549 [5] it was 10.6 µM; in the data set with HCT-116 [6], 28 µM; with A549 [9], 18.4 µM.

Turning to `O=c1[nH]cc(F)c(=O)[nH]1` [FLUOROURACIL], the IC50 with HCT-116 [3] was determined as 29.6 µM; with A549 [5], 24.2 µM; with HCT-116 [6], 19.7 µM.

Consider `COc1cc(/C=C/C(=O)N2CCC=C(Cl)C2=O)cc(OC)c1OC`, for which the values for the IC50 with HCT-116 [3], in the data set on HCT-116 [6] and in the data set on A549 [9] were 11.4 µM, 6.2 µM and 10.2 µM, respectively.

Regarding `CCN(CC)OC(=O)CCCCOc1c(OC)cc(/C=C/C(=O)N2CCC=C(Cl)C2=O)cc1OC`, the IC50 was 6.3 µM in the data set on HCT-116 [3] and 2.8 µM in the data set on HCT-116 [6].

Take `COc1cc(/C=C/C(=O)N2CCC=C(Cl)C2=O)cc(OC)c1OCCCCC(=O)OCO/N=[N+](\[O-])N1CCOCC1`: the Activity result in the data set on A549 [1] is “Tde”; in the data set on HCT-116 [2], “Tde”; in the data set with HCT-116 [4], “Dose-Dependent Effect”; with A549 [7] it was “Dose-Dependent Effect”; in the data set on HCT-116 [8], “Dose-Dependent Effect”. The IC50 in the data set with HCT-116 [3] turned out to be 1.1 µM; in the data set with A549 [5] it was 0.7 µM; in the data set on HCT-116 [6], 0.7 µM; in the data set on A549 [9], 1.1 µM.

For `CCN(CC)/[N+]([O-])=N/CONC(=O)/C=C/c1cc(OC)c(OCCCCC(=O)OCO/N=[N+](\[O-])N(CC)CC)c(OC)c1`, the Activity result is “Tde” in the data set with A549 [1]; “Tde” with HCT-116 [2]; “Dose-Dependent Effect” in the data set on HCT-116 [4]; “Dose-Dependent Effect” with A549 [7]; “Dose-Dependent Effect” with HCT-116 [8]. Further, the IC50 with HCT-116 [3] is 5.4 µM; in the data set with A549 [5], 3.4 µM; in the data set with HCT-116 [6], 3.9 µM; in the data set with A549 [9] it was 5.7 µM.

As for `CCN(CC)/[N+]([O-])=N/OCOC(=O)CCCCOc1c(OC)cc(/C=C/C(=O)N2CCC=C(Cl)C2=O)cc1OC`, the Activity result is “Tde” with A549 [1]; “Tde” in the data set with HCT-116 [2]; “Dose-Dependent Effect” in the data set on HCT-116 [4]; “Dose-Dependent Effect” in the data set with HCT-116 [12]; “Dose-Dependent Effect” in the data set on HCT-116 [13]; “Dose-Dependent Effect” in the data set on A549 [7]. Further, the Activity result in the data set with HCT-116 [14] and in the data set on HCT-116 [8] was “Dose-Dependent Effect” in each case. Further, the IC50 in the data set on HCT-116 [3] turned out to be 0.9 µM; in the data set on A549 [5] it was 0.6 µM; in the data set with HCT-116 [6] it was 0.6 µM; with A549 [9], 0.8 µM. In data set [10], this molecule registered an IC50 at 24 h of 11.3 µM. This molecule yielded an IC50 at 72 h in [11] of 6.1 µM. In addition, in data set [15], the selectivity ratio is over 10.

With `COc1cc(/C=C/C(=O)N2CCC=CC2=O)cc(OC)c1OC` [PIPLARTINE], the Activity entry in the data set with A549 [1] was “Tde”; with HCT-116 [2] it was “Tde”; in the data set on HCT-116 [4], “Dose-Dependent Effect”; in the data set with A549 [7] it was “Dose-Dependent Effect”. For the same molecule, the IC50 was 13.3 µM in the data set on HCT-116 [3], 7.2 µM with A549 [5], 8.6 µM in the data set with HCT-116 [6] and 13.2 µM in the data set on A549 [9].
